Reference: ChEMBL document CHEMBL1201862, “PubChem BioAssay data set” (2004)
Active and inactive are the calls of the source.

Tests used:
[1] = target: UDP-galactopyranose mutase (Mycobacterium tuberculosis, UniProt P9WIQ1); assay: Inhibitors of Mycobacterium tuberculosis UDP-galactopyranose mutase (UGM) enzyme Measured in Biochemical System Using Plate Reader - 2105-02_Inhibitor_Dose_CherryPick_Activity. [Related pubchem assays (depositor defined):AID504439]
Cytochrome P450 2C19 = Cytochrome P450 2C19 (Homo sapiens, UniProt P33261); assay: Cytochrome panel assay with activity outcomes. Panel member name: p450-cyp2c19 Compounds with AC50 equal or less than 10 uM are considered active; assay type: functional; conditions: read-out: AC50
Cytochrome P450 2C19, sequence (P33261 whole entry): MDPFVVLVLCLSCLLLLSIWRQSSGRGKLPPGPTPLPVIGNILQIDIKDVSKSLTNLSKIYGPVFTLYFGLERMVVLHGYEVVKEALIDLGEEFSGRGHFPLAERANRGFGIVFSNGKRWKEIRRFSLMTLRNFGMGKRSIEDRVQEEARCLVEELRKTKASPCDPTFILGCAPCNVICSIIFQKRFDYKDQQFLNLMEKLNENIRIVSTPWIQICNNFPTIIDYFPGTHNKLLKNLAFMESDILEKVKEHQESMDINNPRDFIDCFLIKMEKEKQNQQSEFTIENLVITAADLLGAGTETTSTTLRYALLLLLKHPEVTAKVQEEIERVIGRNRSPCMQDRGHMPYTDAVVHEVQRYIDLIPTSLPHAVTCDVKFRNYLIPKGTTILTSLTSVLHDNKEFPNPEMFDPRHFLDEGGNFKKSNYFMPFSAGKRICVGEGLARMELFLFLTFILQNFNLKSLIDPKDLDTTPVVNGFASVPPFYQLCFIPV

Cytochrome P450 1A2 = target: T1, Cytochrome P450 1A2 (Homo sapiens, UniProt P05177);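 further: PubChem cytochrome P450 panel assay, CYP1A2 panel member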
T1 sequence (P05177 whole entry): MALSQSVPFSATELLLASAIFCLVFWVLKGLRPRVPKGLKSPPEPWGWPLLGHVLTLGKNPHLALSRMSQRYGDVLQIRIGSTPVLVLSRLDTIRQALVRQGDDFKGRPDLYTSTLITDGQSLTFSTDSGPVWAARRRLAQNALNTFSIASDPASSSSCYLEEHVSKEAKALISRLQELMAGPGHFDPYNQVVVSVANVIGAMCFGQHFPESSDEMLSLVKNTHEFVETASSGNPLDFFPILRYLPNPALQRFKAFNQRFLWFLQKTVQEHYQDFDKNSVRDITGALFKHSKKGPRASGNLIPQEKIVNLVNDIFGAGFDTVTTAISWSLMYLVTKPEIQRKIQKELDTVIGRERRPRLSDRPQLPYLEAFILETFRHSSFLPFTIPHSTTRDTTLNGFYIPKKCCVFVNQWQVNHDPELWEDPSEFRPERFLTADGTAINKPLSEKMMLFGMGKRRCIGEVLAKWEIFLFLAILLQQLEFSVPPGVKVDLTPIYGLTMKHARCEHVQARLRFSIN

Cytochrome P450 3A4 [2] = target: T2, Cytochrome P450 3A4 (Homo sapiens, UniProt P08684);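 further: CYP3A4 tested as one member of a cytochrome P450 panel screen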
T2 sequence (P08684 whole entry): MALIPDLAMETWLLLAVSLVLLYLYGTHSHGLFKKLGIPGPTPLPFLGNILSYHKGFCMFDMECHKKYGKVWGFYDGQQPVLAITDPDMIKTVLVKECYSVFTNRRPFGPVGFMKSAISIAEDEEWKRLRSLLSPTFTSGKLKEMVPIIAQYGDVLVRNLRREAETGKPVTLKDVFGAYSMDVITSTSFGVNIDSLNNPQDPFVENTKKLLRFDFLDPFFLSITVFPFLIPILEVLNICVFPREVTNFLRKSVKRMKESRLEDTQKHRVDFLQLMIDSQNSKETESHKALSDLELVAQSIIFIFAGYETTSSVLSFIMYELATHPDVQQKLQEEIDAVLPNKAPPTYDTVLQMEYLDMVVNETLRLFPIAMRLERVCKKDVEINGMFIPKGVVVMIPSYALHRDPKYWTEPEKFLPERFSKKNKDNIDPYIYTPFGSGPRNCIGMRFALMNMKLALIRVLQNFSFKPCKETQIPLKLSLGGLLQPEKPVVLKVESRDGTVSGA

Cytochrome P450 2D6 [3] = target: T3, Cytochrome P450 2D6 (Homo sapiens, UniProt P10635);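 further: CYP2D6 member of a cytochrome P450 panel assay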
T3 sequence (P10635 whole entry): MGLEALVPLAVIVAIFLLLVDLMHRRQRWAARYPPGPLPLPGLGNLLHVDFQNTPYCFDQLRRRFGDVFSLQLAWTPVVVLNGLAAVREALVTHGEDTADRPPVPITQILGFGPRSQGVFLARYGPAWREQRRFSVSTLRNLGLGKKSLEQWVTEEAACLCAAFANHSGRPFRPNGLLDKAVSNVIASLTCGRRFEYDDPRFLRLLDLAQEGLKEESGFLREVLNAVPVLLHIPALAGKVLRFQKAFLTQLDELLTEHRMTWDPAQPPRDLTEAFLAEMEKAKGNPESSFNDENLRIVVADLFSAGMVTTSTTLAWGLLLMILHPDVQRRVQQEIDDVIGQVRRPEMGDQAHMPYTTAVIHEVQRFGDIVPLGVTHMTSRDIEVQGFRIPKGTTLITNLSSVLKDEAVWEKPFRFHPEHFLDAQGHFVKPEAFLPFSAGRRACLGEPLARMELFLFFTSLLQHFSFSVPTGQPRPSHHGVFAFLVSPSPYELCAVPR

[4] = target: T4, Tyrosine-protein phosphatase non-receptor type 7 (Homo sapiens, UniProt P35236); assay type: functional
T4 sequence (P35236 whole entry): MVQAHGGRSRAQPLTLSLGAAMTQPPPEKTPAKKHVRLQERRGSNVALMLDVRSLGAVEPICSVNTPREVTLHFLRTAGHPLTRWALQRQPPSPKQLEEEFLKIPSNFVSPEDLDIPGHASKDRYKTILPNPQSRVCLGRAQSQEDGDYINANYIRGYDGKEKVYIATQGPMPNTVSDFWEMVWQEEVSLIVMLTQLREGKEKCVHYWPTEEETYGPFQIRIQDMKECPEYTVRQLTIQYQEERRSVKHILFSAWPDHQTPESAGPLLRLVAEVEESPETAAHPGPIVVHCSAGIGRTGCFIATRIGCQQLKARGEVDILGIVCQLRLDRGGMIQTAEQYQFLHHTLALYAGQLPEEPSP

Bcl-2-like protein 10 = target: T5, Bcl-2-like protein 10 (Homo sapiens, UniProt Q9HD36); assay: Bcl-B/TR3 peptide binding disruption – biochemical, fluorescence polarization, FITC-TR3 peptide, selectivity assay for Bfl-1 inhibitor project, primary screen (AID 748);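 further: fluorescence polarization from a fluorescein-labelled TR3 peptide binding purified Bcl-B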
T5 sequence (Q9HD36 whole entry): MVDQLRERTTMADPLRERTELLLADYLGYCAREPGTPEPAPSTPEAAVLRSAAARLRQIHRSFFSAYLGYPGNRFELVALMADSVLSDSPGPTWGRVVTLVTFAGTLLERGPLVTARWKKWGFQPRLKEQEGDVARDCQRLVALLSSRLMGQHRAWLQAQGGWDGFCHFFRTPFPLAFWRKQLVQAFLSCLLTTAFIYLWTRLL

[5] = target: Glyceraldehyde-3-phosphate dehydrogenase (Homo sapiens, UniProt P04406)
[6] = target: Induced myeloid leukemia cell differentiation protein Mcl-1 (Homo sapiens, UniProt Q07820); assay: blockers of MCL1 binding to BIM peptide – biochemical, fluorescence polarization, BIM-BH3 peptide, 1536-well, dose response (AID 2217)
Induced myeloid leukemia cell differentiation protein Mcl-1, sequence (Q07820 whole entry): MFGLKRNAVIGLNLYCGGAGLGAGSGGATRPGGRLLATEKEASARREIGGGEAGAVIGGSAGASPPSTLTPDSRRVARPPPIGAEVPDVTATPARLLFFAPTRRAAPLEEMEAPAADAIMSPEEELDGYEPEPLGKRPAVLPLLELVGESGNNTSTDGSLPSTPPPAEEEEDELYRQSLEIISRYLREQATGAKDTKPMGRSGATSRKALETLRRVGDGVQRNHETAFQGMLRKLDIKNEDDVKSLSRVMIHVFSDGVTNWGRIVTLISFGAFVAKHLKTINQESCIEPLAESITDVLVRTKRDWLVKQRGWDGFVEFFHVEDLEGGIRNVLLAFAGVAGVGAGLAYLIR

[7] = target: T6, Dual specificity protein phosphatase 6 (Rattus norvegicus, UniProt Q64346)
T6 sequence (Q64346 whole entry): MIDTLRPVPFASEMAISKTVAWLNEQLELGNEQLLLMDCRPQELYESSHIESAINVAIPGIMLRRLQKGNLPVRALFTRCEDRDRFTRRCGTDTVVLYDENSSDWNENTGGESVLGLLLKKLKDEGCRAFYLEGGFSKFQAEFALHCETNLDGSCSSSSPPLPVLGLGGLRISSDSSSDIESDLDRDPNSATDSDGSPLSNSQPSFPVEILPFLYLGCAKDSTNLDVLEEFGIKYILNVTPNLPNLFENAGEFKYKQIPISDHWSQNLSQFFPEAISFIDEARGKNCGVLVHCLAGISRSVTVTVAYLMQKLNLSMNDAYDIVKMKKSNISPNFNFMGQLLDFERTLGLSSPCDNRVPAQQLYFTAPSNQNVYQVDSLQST

Bcl-2-like protein 1 = Bcl-2-like protein 1 (Homo sapiens, UniProt Q07817); assay: blockers of BCLXL peptide binding – biochemical, fluorescence polarization, 1536-well, selectivity assay for MCL1 inhibitor project, dose response (AID 2218)
Bcl-2-like protein 1, sequence (Q07817 whole entry): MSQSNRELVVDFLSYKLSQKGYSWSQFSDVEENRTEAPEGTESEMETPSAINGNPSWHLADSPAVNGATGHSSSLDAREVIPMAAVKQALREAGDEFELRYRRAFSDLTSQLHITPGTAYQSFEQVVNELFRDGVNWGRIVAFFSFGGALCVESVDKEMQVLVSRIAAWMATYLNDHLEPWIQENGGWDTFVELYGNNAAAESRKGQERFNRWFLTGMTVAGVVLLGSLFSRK

[8] = target: T6, Dual specificity protein phosphatase 6; assay: inhibition of rat DUSP6 enzyme activity – biochemical, in vitro, primary screen (AID 425)
[9] = target: Dual specificity protein phosphatase 3 (Homo sapiens, UniProt P51452); assay: SAR VHR1 Fluorescent Assay for In Vitro dose response studies. [Related pubchem assays (depositor defined):AID1654, AID1661, AID1878, AID1992, AID2004, AID2070, AID2085]; assay type: functional
Dual specificity protein phosphatase 3, sequence (P51452 whole entry): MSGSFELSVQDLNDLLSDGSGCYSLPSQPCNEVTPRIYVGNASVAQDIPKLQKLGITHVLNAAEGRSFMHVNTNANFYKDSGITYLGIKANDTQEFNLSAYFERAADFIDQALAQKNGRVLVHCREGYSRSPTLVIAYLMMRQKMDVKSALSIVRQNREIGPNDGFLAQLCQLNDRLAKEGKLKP

[10] = target: T4, Tyrosine-protein phosphatase non-receptor type 7; assay: redox-active compounds inhibiting HePTP phosphatase – biochemical, fluorescence, mechanism study (AID 2068); assay type: functional
[11] = target: T6, Dual specificity protein phosphatase 6; assay type: functional
Protein Tat = target: T7, Protein Tat (Human immunodeficiency virus type 1 group M subtype B (isolate HXB2)(HIV-1), UniProt P04608); assay type: functional;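 further: tat binding to TAR RNA read out by fluorescence polarization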
T7 sequence (P04608 whole entry): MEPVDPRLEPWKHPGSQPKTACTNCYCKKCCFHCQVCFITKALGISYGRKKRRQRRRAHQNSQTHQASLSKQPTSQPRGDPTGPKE

[12] = target: T8, Replicative DNA helicase DnaB (Mycobacterium tuberculosis, UniProt P9WMR3); assay: DnaB intein splicing inhibitors, dose response, biochemical, cell-free fluorescence (AID 449749); assay type: functional
T8 sequence (P9WMR3 whole entry): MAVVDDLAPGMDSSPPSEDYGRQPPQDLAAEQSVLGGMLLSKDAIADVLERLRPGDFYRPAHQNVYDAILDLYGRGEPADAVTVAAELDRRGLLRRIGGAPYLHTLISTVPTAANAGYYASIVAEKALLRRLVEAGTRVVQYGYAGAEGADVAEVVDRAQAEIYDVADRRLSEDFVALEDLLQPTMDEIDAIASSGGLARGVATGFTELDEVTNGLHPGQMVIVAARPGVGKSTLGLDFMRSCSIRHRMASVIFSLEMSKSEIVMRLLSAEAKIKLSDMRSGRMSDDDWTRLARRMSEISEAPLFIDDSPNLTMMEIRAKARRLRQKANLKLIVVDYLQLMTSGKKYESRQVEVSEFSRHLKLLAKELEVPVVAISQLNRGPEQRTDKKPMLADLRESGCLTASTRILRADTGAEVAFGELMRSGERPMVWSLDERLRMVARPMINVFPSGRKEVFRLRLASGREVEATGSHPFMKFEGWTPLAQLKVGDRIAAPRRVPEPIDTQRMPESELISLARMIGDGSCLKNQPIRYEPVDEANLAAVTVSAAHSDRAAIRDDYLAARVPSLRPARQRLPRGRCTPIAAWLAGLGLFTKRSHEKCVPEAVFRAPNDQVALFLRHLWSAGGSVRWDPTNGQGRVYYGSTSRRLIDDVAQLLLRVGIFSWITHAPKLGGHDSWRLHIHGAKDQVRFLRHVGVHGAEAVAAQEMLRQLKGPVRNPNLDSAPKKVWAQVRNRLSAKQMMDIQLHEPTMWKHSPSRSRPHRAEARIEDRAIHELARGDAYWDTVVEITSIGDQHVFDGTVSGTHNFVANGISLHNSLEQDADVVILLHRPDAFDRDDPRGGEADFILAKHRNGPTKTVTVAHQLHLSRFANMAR

Keap1/Nrf2 = Keap1/Nrf2 (Homo sapiens, UniProt Q14145); assay: disruptors of Keap1 binding to Nrf2 peptide – biochemical, fluorescence polarization, cherry-picked samples, dose response (AID 588683)
Keap1/Nrf2, sequence (Q16236 whole entry): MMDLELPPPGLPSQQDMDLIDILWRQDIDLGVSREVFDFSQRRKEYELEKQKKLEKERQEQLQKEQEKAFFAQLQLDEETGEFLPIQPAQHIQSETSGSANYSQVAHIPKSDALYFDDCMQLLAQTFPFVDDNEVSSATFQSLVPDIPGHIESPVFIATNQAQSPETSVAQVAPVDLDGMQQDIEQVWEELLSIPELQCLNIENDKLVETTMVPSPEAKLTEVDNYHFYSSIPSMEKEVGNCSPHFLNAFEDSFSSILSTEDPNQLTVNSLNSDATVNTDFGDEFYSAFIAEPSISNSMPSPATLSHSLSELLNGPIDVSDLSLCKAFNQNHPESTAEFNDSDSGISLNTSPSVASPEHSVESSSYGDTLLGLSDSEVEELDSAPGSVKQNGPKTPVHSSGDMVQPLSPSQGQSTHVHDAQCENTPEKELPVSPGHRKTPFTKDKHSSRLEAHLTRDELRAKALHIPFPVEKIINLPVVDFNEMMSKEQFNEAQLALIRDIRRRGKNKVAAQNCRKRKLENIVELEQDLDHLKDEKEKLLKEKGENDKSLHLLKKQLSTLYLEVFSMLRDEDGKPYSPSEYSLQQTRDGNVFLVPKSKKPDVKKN
Keap1/Nrf2, sequence (Q14145 whole entry): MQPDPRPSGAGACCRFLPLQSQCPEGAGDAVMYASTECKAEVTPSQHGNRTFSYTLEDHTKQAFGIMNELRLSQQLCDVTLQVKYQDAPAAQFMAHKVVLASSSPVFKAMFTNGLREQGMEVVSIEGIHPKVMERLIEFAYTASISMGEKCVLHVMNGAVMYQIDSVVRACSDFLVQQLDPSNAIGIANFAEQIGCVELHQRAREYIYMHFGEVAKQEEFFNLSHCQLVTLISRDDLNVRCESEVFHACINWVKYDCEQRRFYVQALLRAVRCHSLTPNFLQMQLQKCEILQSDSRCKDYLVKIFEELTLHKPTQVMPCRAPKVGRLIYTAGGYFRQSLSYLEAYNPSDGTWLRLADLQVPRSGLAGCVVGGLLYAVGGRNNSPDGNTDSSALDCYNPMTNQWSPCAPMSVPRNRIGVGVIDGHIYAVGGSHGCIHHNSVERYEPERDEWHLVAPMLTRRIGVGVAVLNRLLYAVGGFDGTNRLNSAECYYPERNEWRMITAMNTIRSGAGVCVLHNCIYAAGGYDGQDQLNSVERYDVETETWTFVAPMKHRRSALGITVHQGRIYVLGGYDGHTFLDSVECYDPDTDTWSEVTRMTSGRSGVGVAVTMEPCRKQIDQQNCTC

Protein RecA = target: T9, Protein RecA (Mycobacterium tuberculosis, UniProt P9WHJ3); assay: Fluorescence Cell-Free Homogeneous Dose Retest to Identify Inhibitors of RecA-Intein Splicing Activity. [Related pubchem assays (depositor defined):AID2097, AID2223, AID489010, AID492950]; assay type: functional
T9 sequence (P9WHJ3 whole entry): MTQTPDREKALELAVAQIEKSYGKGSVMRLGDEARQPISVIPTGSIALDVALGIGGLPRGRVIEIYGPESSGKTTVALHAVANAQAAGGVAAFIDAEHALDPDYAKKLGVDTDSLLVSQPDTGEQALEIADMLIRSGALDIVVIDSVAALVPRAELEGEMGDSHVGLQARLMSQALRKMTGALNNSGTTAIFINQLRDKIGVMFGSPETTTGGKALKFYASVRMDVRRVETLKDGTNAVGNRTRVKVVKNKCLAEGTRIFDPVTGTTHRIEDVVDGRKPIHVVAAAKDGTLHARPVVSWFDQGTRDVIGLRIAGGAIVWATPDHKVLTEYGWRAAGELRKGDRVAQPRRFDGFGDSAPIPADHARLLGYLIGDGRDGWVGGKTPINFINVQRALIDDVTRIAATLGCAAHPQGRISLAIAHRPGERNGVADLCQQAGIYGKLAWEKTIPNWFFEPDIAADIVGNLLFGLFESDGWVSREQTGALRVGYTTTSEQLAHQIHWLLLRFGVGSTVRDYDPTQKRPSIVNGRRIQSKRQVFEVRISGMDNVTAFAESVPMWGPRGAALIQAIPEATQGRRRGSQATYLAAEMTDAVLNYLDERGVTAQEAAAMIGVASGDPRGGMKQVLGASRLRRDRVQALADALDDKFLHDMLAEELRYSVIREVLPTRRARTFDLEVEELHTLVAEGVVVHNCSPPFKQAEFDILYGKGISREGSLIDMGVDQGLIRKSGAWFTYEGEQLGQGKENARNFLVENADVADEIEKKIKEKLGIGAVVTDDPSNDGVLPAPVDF

INS1 = assay: INS-1E survival protection against cytokine death – cell-based, luminescence, retest, dose response (AID 449756); assay type: functional; conditions: Rattus norvegicus;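 further: cell death triggered by IL-1 beta plus TNF-alpha plus IFN-gamma mixture; protective hits raise ATP signal compared with cytokine alone wells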
[13] = Intein inhibitors as potential Tuberculosis drugs, a cytotoxicity screen. [Related pubchem assays (depositor defined):AID2221, AID2223, AID434968, AID435010, AID449749, AID449750, AID489010]; assay type: functional
[14] = target: G-protein coupled receptor 55 (Homo sapiens, UniProt Q9Y2T6); assay: blockers of GPR55 signalling, imaged – imaging, image-based, counter-screen for GPR35 antagonist project, SAR follow-up (AID 2397); assay type: functional
G-protein coupled receptor 55, sequence (Q9Y2T6 whole entry): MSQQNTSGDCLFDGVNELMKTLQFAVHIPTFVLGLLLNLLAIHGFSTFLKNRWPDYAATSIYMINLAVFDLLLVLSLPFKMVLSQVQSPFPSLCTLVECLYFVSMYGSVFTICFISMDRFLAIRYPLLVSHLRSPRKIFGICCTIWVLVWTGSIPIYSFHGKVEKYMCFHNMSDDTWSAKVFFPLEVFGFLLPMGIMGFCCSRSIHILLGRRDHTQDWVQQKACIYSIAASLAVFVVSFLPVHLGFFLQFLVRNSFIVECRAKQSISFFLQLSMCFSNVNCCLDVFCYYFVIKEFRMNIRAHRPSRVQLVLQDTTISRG

Protein skinhead-1 = target: T10, Protein skinhead-1 (Caenorhabditis elegans, UniProt P34707); assay type: functional
T10 sequence (P34707 whole entry): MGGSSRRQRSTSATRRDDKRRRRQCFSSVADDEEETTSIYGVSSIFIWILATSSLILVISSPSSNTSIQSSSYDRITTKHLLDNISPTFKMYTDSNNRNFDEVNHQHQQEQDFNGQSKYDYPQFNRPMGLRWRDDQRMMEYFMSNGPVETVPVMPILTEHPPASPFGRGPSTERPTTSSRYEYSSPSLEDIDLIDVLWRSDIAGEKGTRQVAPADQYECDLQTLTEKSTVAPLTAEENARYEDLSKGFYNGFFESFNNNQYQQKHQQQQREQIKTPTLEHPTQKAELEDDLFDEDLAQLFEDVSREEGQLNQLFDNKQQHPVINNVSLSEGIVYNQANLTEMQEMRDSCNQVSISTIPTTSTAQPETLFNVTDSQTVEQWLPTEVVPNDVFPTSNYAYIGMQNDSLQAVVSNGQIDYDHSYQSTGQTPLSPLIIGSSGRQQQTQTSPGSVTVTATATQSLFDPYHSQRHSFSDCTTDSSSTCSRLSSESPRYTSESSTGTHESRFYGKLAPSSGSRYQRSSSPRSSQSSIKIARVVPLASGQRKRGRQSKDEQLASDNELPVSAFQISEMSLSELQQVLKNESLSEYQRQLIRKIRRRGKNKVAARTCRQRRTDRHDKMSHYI

Cytochrome P450 2D6 [15] = target: T3, Cytochrome P450 2D6; remark: listed apart in the source
Cytochrome P450 2C9 = Cytochrome P450 2C9 (Homo sapiens, UniProt P11712)
Cytochrome P450 2C9, sequence (P11712 whole entry): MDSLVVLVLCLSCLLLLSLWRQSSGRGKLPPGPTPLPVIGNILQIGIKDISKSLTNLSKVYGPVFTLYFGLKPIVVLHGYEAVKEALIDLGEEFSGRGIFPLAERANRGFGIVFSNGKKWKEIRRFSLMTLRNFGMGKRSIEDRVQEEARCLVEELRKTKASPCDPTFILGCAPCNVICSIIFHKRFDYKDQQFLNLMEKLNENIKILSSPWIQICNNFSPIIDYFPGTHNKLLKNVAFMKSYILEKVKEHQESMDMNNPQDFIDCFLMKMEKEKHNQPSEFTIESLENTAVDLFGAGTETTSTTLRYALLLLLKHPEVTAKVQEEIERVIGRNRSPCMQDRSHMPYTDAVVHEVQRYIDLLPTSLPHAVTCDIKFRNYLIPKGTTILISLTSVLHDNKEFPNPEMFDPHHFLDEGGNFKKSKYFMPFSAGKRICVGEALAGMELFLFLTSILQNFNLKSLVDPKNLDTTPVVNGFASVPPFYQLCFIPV

Cytochrome P450 3A4 [16] = target: T2, Cytochrome P450 3A4; remark: listed apart in the source
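Wherever CC50 is given: cells exposed to compound for 72 hours before luminescence readout.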

UDP-galactopyranose mutase, sequence (P9WIQ1 whole entry): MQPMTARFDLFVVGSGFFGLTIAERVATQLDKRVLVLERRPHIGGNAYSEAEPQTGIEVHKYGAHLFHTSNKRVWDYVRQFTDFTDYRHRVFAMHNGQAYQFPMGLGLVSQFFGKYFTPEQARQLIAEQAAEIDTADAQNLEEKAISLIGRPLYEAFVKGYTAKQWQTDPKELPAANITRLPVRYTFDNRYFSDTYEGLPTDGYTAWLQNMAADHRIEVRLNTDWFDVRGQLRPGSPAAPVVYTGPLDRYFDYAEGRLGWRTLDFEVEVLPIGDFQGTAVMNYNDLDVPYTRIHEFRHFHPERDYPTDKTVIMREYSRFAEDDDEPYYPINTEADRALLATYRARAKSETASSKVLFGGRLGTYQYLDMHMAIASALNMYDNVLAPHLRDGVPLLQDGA

COCCNC(=O)Cn1cc(C=C2C(=O)NC(=O)NC2=O)c2ccccc21
AC50 [1]: 46.3 µM (active)

CC(C)(C)c1ccc(-c2nnc(SCC(=O)c3ccc4c(c3)OCCO4)o2)cc1
AC50 (Cytochrome P450 2C19): 3.98 µM (inconclusive)
AC50 (Cytochrome P450 1A2): 2.24 µM (inconclusive)
AC50 (Cytochrome P450 3A4 [2]): 39.8 µM (inconclusive)
AC50 (Cytochrome P450 2D6 [3]): inconclusive

c1ccc(CSc2nnc(-c3ccco3)c(-c3ccco3)n2)cc1
IC50 [4]: 13.3 µM (active)
IC50 (Bcl-2-like protein 10): 5.55 µM (active)
IC50 [5]: > 100 µM (not active)
IC50 [6]: 2.92 µM (active)
IC50 [7]: 23.9 µM (active)
IC50 (Bcl-2-like protein 1): > 109 µM (not active)
IC50 [8]: > 10 µM (not active)
IC50 [9]: 7.06 µM (active)
IC50 [10]: 0.284 µM (active)
IC50 [11]: 24.2 µM (active)
IC50 (Protein Tat): 4.04 µM (inconclusive)

Cc1ccc(S(=O)(=O)Nc2ccc(O)c3ccccc23)c(C)c1
AC50 [12]: 0.132 µM (active)
AC50 (Keap1/Nrf2): > 52 µM (inactive)
EC50 (Protein RecA): 0.0702 µM (active)
AC50 (INS1): 5.61 µM (active)

O=C(CCCN1C(=O)/C(=C/c2cccs2)SC1=S)Nc1ccc(O)cc1
CC50 [13]: 28.5 µM (active)
IC50 [14]: 30.5 µM (inactive)
AC50 [12]: 2.11 µM (active)
EC50 (Protein RecA): 3.25 µM (active)
IC50 (Protein skinhead-1): > 100 µM (inactive)

COC(=O)C1Cc2c([nH]c3ccccc23)CN1 (stereo not drawn)
AC50 (Cytochrome P450 2D6 [15]): 14.1 µM (inconclusive)
AC50 (Cytochrome P450 2C9): 25.1 µM (inconclusive)
AC50 (Cytochrome P450 3A4 [16]): inconclusive
